The structures appear in SMILES notation. In brackets after ≈: the same amount, converted by molar mass.

The subject of the experiment is SAUR 9218. Kind of experiment: MIC Test Method, standard agar dilution. Format: cell-based. As to conditions: agar dilution, Mueller Hinton agar, incubated overnight at 35° C.; lowest concentration that inhibits visible growth; read-out: SAUR 9218 MIC. Put shortly: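 MIC (μg/ml) was read as the lowest drug level without visible growth of SAUR 9218 after overnight incubation at 35 °C. Inocula of about 10^4 to 10^5 cells per spot were applied to Mueller Hinton agar containing 2-fold serial compound dilutions.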
(In general: Agar dilution tests growth on a series of plates holding different concentrations.)

`N#Cc1ccc(NC(=O)c2cc3cccc(NC(=O)CC4CCCC4)c3[nH]2)c(C(=O)O)c1`: the MIC came to 1 µg/mL (≈ 2.32 µM).
For `Cn1c(C(=O)Nc2ccc(C#N)cc2C(=O)O)cc2cccc(-c3ccc(S(C)(=O)=O)cc3)c21`, the MIC is 8 µg/mL (≈ 16.9 µM).
`CN(c1ccc(Cl)cc1)S(=O)(=O)c1cncc(C(=O)Nc2ccc(Br)cc2C(=O)O)c1`: the MIC came out at 1 µg/mL (≈ 1.91 µM).
For `Cn1c(C(=O)Nc2ccc(C#N)cc2C(=O)O)cc2cccc(OCC(O)CCl)c21` (centres unmarked), the MIC came out at 0.25 µg/mL (≈ 0.584 µM).
In the case of `N#Cc1ccc(NC(=O)c2ccc(SCc3ccncc3)nn2)c(C(=O)O)c1`, the MIC came to 0.25 µg/mL (≈ 0.639 µM).
As to `Cc1cnc(C(=O)Nc2ccc(Br)cc2C(=O)O)cn1`, the MIC is 128 µg/mL (≈ 381 µM).
Take `COc1ccc(CC(=O)Nc2cccc3cc(C(=O)Nc4ccc(C#N)cc4C(=O)O)[nH]c23)cc1OC`: the minimum inhibitory concentration (MIC) turned out to be 1 µg/mL (≈ 2.01 µM).
For the compound `CC1(C)OCC(/C=C/c2cnc(C(=O)Nc3ccc(Br)cc3C(=O)O)cn2)O1` (centres unmarked), the MIC came to 32 µg/mL (≈ 71.4 µM).
`CCCCN(CCCC)CCCNS(=O)(=O)c1csc(C(=O)Nc2ccc(Br)cc2C(=O)O)c1C`: the MIC is > 128 µg/mL.
`O=C(Nc1ccc(Cl)cc1C(=O)O)c1cc(CCCc2ccccc2)on1`: the MIC stood at 0.5 µg/mL (≈ 1.3 µM).
In the case of `O=C(Nc1ccc(Cl)cc1C(=O)O)c1cc(-c2ccccc2Cl)on1`, the MIC was 0.5 µg/mL (≈ 1.33 µM).
Turning to `CC(C)c1ccc(CC(=O)Nc2cccc3cc(C(=O)Nc4ccc(C#N)cc4C(=O)O)[nH]c23)cc1`, the MIC is 0.5 µg/mL (≈ 1.04 µM).
`O=C(Nc1ccc(Br)cc1C(=O)O)c1ccsc1`: the MIC was > 128 µg/mL.
The same measure for `Cn1c(C(=O)Nc2ccc(Br)cc2C(=O)O)cc2ccccc21`: 0.5 µg/mL (≈ 1.34 µM); for `COc1ccccc1-c1cc(C(=O)Nc2ccc(Cl)cc2C(=O)O)no1`: 0.125 µg/mL (≈ 0.335 µM); for `N#Cc1ccc(NC(=O)c2cc3cccc(NC(=O)Cc4ccc(Cl)cc4)c3[nH]2)c(C(=O)O)c1`: 0.25 µg/mL (≈ 0.529 µM).
Regarding `N#Cc1ccc(NC(=O)c2noc3c2CCc2ccccc2-3)c(C(=O)O)c1`, the MIC turned out to be 0.06 µg/mL (≈ 0.167 µM).
Regarding `O=C(Nc1ccc(Br)cc1C(=O)O)c1cnc(/C=C/C2COC3(CCCCC3)O2)cn1` (centres unmarked), the MIC worked out at 8 µg/mL (≈ 16.4 µM).
The result for `COc1ccccc1-c1cnc(C(=O)Nc2ccc(Br)cc2C(=O)O)o1` reads 2 µg/mL (≈ 4.79 µM); that for `Cn1c(C(=O)Nc2ccc(C#N)cc2C(=O)O)cc2cccc(OCC3CC3)c21`, 0.125 µg/mL (≈ 0.321 µM).
In the case of `COCOCC(O)C(Cc1cnc(C(=O)Nc2ccc(Br)cc2C(=O)O)cn1)OC` (centres unmarked), the MIC was determined as 128 µg/mL (≈ 264 µM).
Turning to `CCCCCCSc1ccc(C(=O)Nc2ccc(Br)cc2C(=O)O)cn1`, the minimum inhibitory concentration (MIC) was found to be 0.125 µg/mL (≈ 0.286 µM).
The result for `Cn1nc(C(=O)Nc2ccc(C#N)cc2C(=O)O)c2ccccc21` reads 32 µg/mL (≈ 99.9 µM); that for `N#Cc1ccc(NC(=O)c2ccc(SC3CCCC3)nc2)c(C(=O)O)c1`, 0.5 µg/mL (≈ 1.36 µM); that for `Cc1cc(CC(=O)Nc2cccc3cc(C(=O)Nc4ccc(C#N)cc4C(=O)O)[nH]c23)on1`, 2 µg/mL (≈ 4.51 µM).
For the compound `COc1ccc(C(=O)Nc2ccc(C#N)cc2C(=O)O)c(OC)n1`, the MIC was > 128 µg/mL.
In the case of `N#Cc1ccc(NC(=O)c2noc3cc(NS(=O)(=O)c4ccccc4)ccc23)c(C(=O)O)c1`, the MIC was determined as 1 µg/mL (≈ 2.16 µM).
The result for `N#Cc1ccc(NC(=O)c2cc3cccc(NC(=O)C4CC4)c3[nH]2)c(C(=O)O)c1` reads 1 µg/mL (≈ 2.57 µM); that for `CCCCCCSc1ccc(C(=O)Nc2ccc(C#N)cc2C(=O)O)nn1`, 0.03 µg/mL (≈ 0.078 µM).
For `N#Cc1ccc(NC(=O)c2n[nH]c3ccccc23)c(C(=O)O)c1`, the MIC was determined as 16 µg/mL (≈ 52.2 µM).
For the compound `CCCCCC(=O)Nc1cccc2cc(C(=O)Nc3ccc(C#N)cc3C(=O)O)[nH]c12`, the MIC worked out at 0.5 µg/mL (≈ 1.19 µM).
The result for `Cn1c(C(=O)Nc2ccc(C#N)cc2C(=O)O)cc2ccccc21` reads 0.25 µg/mL (≈ 0.783 µM).
Regarding `Cc1noc(-c2ccccc2)c1C(=O)Nc1cccc2cc(C(=O)Nc3ccc(C#N)cc3C(=O)O)[nH]c12`, the MIC was 0.5 µg/mL (≈ 0.989 µM).
Consider `O=C(O)c1cc(Br)ccc1NC(=O)c1cc(SCc2ccccc2)cc[n+]1[O-]`, for which the MIC turned out to be 8 µg/mL (≈ 17.4 µM).
Consider `O=C(O)c1cc(Br)ccc1NC(=O)c1cccnc1Cl`, for which the MIC was > 128 µg/mL.

By MIC is commonly meant the smallest concentration in the dilution series that meets the test's criterion for growth inhibition.
